Data on three molecules can be found in patent US20250205467A1, “SYSTEMS AND METHODS FOR THE TREATMENT OF CANCER USING ULTRASOUND” (Duke University, priority 2022, published 2025).

In assay [1] the test system is MM3MG-ESR1mut (Y537N, Y537S, D538G). As to the kind of experiment: Response of MM3MG-ESR1mut cells to standard endocrine therapies. The assay is classed as cell-based, mouse. The settings on record: data not shown. The protocol: Using DNA deep-sequencing technology, recent studies have identified several conserved mutations to the […] of ESR1 in a significant proportion (˜30-40%) of endocrine-resistant metastatic ER+ breast cancer patients. As no established models of endocrine-resistant ER+ breast cancer existed in immunocompetent mice, an ER+ endocrine resistant breast cancer cell line model was generated that would grow in immune competent syngeneic animals. MM3MG cells were artificially transformed with wild-type or mutated human ESR1 (Y537N, Y537S, D538G).
Therefore, the established murine breast cancer cell lines, MM3MG-ESR1mut (Y537N, Y537S, D538G), simulate patients' metastatic ER+ breast cancers, that are endocrine-resistant, having ESR1 gene mutation, and behave more aggressively.

In the next assay the test system is 4T1 tumors. Particulars: combined with thermal ablative focused ultrasound; CD8 and CD4 T cell-dependent; cited from earlier work.
The subject of assay [2] is pre-treated locally advanced or recurrent TNBC. Nature of the assay: Single arm, prospective clinical trial of intratumoral pIL-12 (TAVO) monotherapy (OMS-140). The settings on record: one patient previously unresponsive to anti-PD1; after 1 cycle of IL-12 treatment and 3 months of therapy. The assay is classed as in vivo, human. Here is the method:
The clinical safety of the therapy was tested in a single arm, prospective clinical trial of intratumoral pIL-12 (TAVO) monotherapy (OMS-140) in pre-treated locally advanced or recurrent TNBC.

Consider `CC/C(=C(\c1ccccc1)c1ccc(OCCN(C)C)cc1)c1ccccc1` [Tamoxifen], for which the “sensitivity of the cells to standard endocrine therapies” value in assay [1] is recorded as “completely resistant”.

Consider `Nc1ccn([C@@H]2O[C@H](CO)[C@@H](O)C2(F)F)c(=O)n1` [gemcitabine], for which, in the assay with 4T1 tumors, the “tumor control and survival of mice” value was “enhanced tumor control and improved survival”.

nivolumab: in assay [2], the “clinical response of lung metastases” value is recorded as “profound clinical response”.
